Data on nine molecules can be found in US20260317324A1, “BIFUNCTIONAL COMPOUNDS FOR DEGRADING BRAF VIA UBIQUITIN PROTEOSOME PATHWAY” (Nurix Therapeutics, Inc., priority 2023, published 2026).

Molecules are shown by their SMILES.

Assay type in all cases: cell-based
One test deals with T1, BRAF V600E (Homo sapiens, UniProt P15056, V600E).
T1 construct: endogenous C-terminal HiBiT fusion tag on BRAF V600E allele; endogenous in cells; host or cells: A375 clone 1F10 (CRISPR-Cas9 knock-in of the HiBiT tag; parental A375 from ATCC)
T1 sequence (P15056 whole entry V600E, the tested form may be a part): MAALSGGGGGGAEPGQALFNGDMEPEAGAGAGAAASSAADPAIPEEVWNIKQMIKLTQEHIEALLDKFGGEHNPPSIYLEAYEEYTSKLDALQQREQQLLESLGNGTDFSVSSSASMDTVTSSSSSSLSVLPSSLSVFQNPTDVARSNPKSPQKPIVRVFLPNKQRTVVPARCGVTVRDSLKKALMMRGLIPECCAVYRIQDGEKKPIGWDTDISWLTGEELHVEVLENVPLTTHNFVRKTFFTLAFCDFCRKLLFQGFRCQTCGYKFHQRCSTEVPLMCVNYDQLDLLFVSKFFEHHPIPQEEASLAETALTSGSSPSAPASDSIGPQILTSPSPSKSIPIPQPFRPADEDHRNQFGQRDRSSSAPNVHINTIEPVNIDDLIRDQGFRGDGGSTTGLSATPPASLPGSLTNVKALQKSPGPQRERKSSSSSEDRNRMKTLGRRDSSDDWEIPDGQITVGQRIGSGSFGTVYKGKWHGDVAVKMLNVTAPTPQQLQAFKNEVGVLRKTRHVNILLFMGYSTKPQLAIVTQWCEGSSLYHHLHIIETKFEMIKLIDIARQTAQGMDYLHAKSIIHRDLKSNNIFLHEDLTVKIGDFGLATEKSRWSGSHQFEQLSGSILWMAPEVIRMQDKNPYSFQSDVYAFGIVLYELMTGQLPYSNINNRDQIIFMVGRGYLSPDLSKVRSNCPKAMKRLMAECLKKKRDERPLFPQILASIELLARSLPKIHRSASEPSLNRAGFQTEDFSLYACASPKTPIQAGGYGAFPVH
Kind of test: BRAF HiBiT degradation assay, C-terminal HiBiT-tagged BRAF V600E A375 cells (clone 1F10), Nano-Glo HiBiT Lytic assay. The note with it: for Dmax: A-375. The method in brief:
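Steps: seed HiBiT-tagged A375 clone 1F10 cells; incubate 24 h, 37 °C, 5% CO2; add compound (11 half-log points from 1 μM, 0.2% DMSO); lyse with HiBiT detection reagent plus LgBiT for 10 min; read luminescence; fit % protein remaining against concentration.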
In general terms: HiBiT is a short tag that completes a luciferase, so light tracks the accessible tagged protein.

Another test deals with T2, BRAF G466V (Homo sapiens, UniProt P15056, G466V).
T2 construct: Horizon Discovery (HCT-116 BRAF−/− cells); host or cells: HCT-116 BRAF−/− cells, clone 8, lentiviral transduction
T2 sequence (P15056 whole entry G466V): as the sequence (P15056 whole entry V600E, the tested form may be a part) above, with G466V, E600V counted along it
The test can be described thus: BRAF HiBiT degradation assay, C-terminal HiBiT-tagged BRAF G466V overexpressed in HCT-116 BRAF−/− cells (clone 8), Nano-Glo HiBiT Lytic assay. The method in brief: (§1)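 We quantified degradation of the C-terminally HiBiT-tagged, overexpressed mutant by lytic luminescence, normalizing to DMSO-treated cells with wild-type HCT-116 background subtracted. Dose series ran from 1 μM to 0.01 nM at 0.2% DMSO. Observed Dmax is % degraded at maximal effect.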

Another test concerns the target T3, BRAF G469A (Homo sapiens, UniProt P15056, G469A).
T3 construct: Horizon Discovery (HCT-116 BRAF−/− cells); host or cells: HCT-116 BRAF−/− cells, clone 34, lentiviral transduction
Kind of test: BRAF HiBiT degradation assay, C-terminal HiBiT-tagged BRAF G469A overexpressed in HCT-116 BRAF−/− cells (clone 34), Nano-Glo HiBiT Lytic assay. In outline:
as §1

Another test concerns the target T4, BRAF D594G (Homo sapiens, UniProt P15056, D594G).
T4 construct: Horizon Discovery (HCT-116 BRAF−/− cells); host or cells: HCT-116 BRAF−/− cells, clone 63, lentiviral transduction
The test can be described thus: BRAF HiBiT degradation assay, C-terminal HiBiT-tagged BRAF D594G overexpressed in HCT-116 BRAF−/− cells (clone 63), Nano-Glo HiBiT Lytic assay. In outline: as §1

[1] abbreviates: A375 (BRAF V600E, Class 1), DC50 at 50% degradation.
The mark [2] stands for this setting: A375 (BRAF V600E, Class 1), observed Dmax, % protein degraded relative to DMSO control.
The mark [3] stands for this setting: BRAF G466V (Class 3), HCT-116 BRAF−/− cells, DC50 at 50% degradation.
[4] abbreviates: BRAF G466V (Class 3), HCT-116 BRAF−/− cells, observed Dmax relative to DMSO control.
Where [5] appears, read: BRAF G469A (Class 2), HCT-116 BRAF−/− cells, DC50 at 50% degradation.
[6] abbreviates: BRAF G469A (Class 2), HCT-116 BRAF−/− cells, observed Dmax relative to DMSO control.
The mark [7] stands for this setting: BRAF D594G (Class 3), HCT-116 BRAF−/− cells, DC50 at 50% degradation.
[8] abbreviates: BRAF D594G (Class 3), HCT-116 BRAF−/− cells, observed Dmax relative to DMSO control.
Where [9] appears, read: A375 (BRAF V600E), DC50 at 50%: fitted conc. at Y=50.
Where [10] appears, read: A375 (BRAF V600E), percentage protein degraded at maximal compound effect relative to DMSO.
[11] abbreviates: BRAF G466V, DC50 at 50%: fitted conc. at Y=50.
Where [12] appears, read: HCT-116, BRAF G466V, percentage protein degraded at maximal compound effect relative to DMSO.
The mark [13] stands for this setting: Class 2, BRAF G469A, DC50 at 50%: fitted conc. at Y=50.
Setting [14] is: HCT-116, Class 2, BRAF G469A, percentage protein degraded at maximal compound effect relative to DMSO.
Setting [15] is: BRAF D594G, DC50 at 50%: fitted conc. at Y=50.
Where [16] appears, read: HCT-116, BRAF D594G, percentage protein degraded at maximal compound effect relative to DMSO.

For orientation: DC50 means the concentration at which degradation of the target reaches its halfway point. A low value points to a more potent degrader. As usually defined, the Dmax is the largest share of the target that was removed. A lower Dmax goes with shallow degradation.

T4 sequence (P15056 whole entry D594G): as the sequence (P15056 whole entry V600E, the tested form may be a part) above, with D594G, E600V counted along it
T3 sequence (P15056 whole entry G469A): as the sequence (P15056 whole entry V600E, the tested form may be a part) above, with G469A, E600V counted along it

For `CCCS(=O)(=O)Nc1cccc(-c2nc(C3CCC4(CC3)CCN(C(=O)C3CCN(c5ccc(C(=O)NC6CCC(=O)NC6=O)nc5)CC3)CC4)sc2-c2ccnc(N)n2)c1F` (racemic) [Compound 252, Rac-5-(4-{9-[5-(2-aminopyrimidin-4-yl)-4-[2-fluoro-3-(propane-1-sulfonamido)phenyl]-1,3-thiazol-2-yl]-3-azaspiro[5.5]undecane-3-carbonyl}piperidin-1-yl)-N-[(3R)-2,6-dioxopiperidin-3-yl]pyridine-2-carboxamide], the DC50 on BRAF V600E (setting [1]) is 0.01 to 0.05 µM; at BRAF G466V (setting [3]), > 0.5 µM; at BRAF G469A (setting [5]), > 0.5 µM; at BRAF D594G (setting [7]), > 0.5 µM. Further, the maximal degradation (Dmax) is > 70% on BRAF V600E (setting [2]), < 30% at BRAF G466V (setting [4]), < 30% on BRAF G469A (setting [6]) and < 30% on BRAF D594G (setting [8]).

As to `O=C1CCN(c2ccc(N3CCC(CN4CCN(c5ccc(-n6cc(-c7cc(F)cc(NS(=O)(=O)N8CCCC8)c7F)c(-c7ccncc7)n6)cc5)CC4)CC3)cc2)C(=O)N1` [Compound 300, N-[3-(1-{4-[4-({1-[4-(2,4-dioxo-1,3-diazinan-1-yl)phenyl]piperidin-4-yl}methyl)piperazin-1-yl]phenyl}-3-(pyridin-4-yl)-1H-pyrazol-4-yl)-2,5-difluorophenyl]pyrrolidine-1-sulfonamide], the DC50 at BRAF V600E (setting [1]) was 0.01 to 0.05 µM; on BRAF G466V (setting [3]), < 0.01 µM; at BRAF G469A (setting [5]), 0.05 to 0.5 µM; at BRAF D594G (setting [7]) it was < 0.01 µM. The Dmax on BRAF V600E (setting [2]) is > 70%; at BRAF G466V (setting [4]) it was > 70%; on BRAF G469A (setting [6]), 30 to 70%; on BRAF D594G (setting [8]), 30 to 70%.

`CCCS(=O)(=O)Nc1cccc(-c2nc(C(C)(C)C)sc2-c2ccnc(Nc3cnn(C4CCN(C(=O)CN5CCC(c6ccc(NC7CCC(=O)NC7=O)cc6)CC5)CC4)c3)n2)c1F` (racemic) [Compound 108, Rac-N-{3-[2-tert-butyl-5-(2-{[1-(1-{2-[4-(4-{[(3R)-2,6-dioxopiperidin-3-yl]amino}phenyl)piperidin-1-yl]acetyl}piperidin-4-yl)-1H-pyrazol-4-yl]amino}pyrimidin-4-yl)-1,3-thiazol-4-yl]-2-fluorophenyl}propane-1-sulfonamide]: the DC50 on BRAF V600E (setting [9]) was < 0.01 µM; on BRAF G466V (setting [11]), > 0.5 µM; at BRAF G469A (setting [13]) it was > 0.5 µM; at BRAF D594G (setting [15]), > 0.5 µM. The Dmax was > 70% at BRAF V600E (setting [10]), < 30% on BRAF G466V (setting [12]), < 30% on BRAF G469A (setting [14]) and 30 to 70% at BRAF D594G (setting [16]).

As for `O=C1CCN(c2ccc(N3CCC(CN4CCN(c5ccc(-n6cc(-c7cc(Cl)cc(NS(=O)(=O)N8CC[C@@H](F)C8)c7F)c(-c7ccncc7)n6)cc5)CC4)CC3)cc2)C(=O)N1` [Compound 292, (3R)—N-[5-chloro-3-(1-{4-[4-({1-[4-(2,4-dioxo-1,3-diazinan-1-yl)phenyl]piperidin-4-yl}methyl)piperazin-1-yl]phenyl}-3-(pyridin-4-yl)-1H-pyrazol-4-yl)-2-fluorophenyl]-3-fluoropyrrolidine-1-sulfonamide], the DC50 on BRAF V600E (setting [1]) was < 0.01 µM; on BRAF G466V (setting [3]) it was < 0.01 µM; on BRAF G469A (setting [5]) it was 0.05 to 0.5 µM; on BRAF D594G (setting [7]) it was < 0.01 µM. Further, the maximal degradation (Dmax) on BRAF V600E (setting [2]) was > 70%; on BRAF G466V (setting [4]), 30 to 70%; on BRAF G469A (setting [6]), 30 to 70%; at BRAF D594G (setting [8]), 30 to 70%.

In the case of `CCCS(=O)(=O)Nc1cccc(-c2nc(-c3ccc(N4CCN(CC5CCN(c6ccc([C@@H]7CCC(=O)NC7=O)cc6)CC5)CC4)cc3)sc2-c2ccnc(N)n2)c1F` [Compound 186, N-{3-[5-(2-aminopyrimidin-4-yl)-2-(4-{4-[(1-{4-[(3S)-2,6-dioxopiperidin-3-yl]phenyl}piperidin-4-yl)methyl]piperazin-1-yl}phenyl)-1,3-thiazol-4-yl]-2-fluorophenyl}propane-1-sulfonamide], the DC50 at BRAF V600E (setting [9]) was 0.01 to 0.05 µM; at BRAF G466V (setting [11]) it was > 0.5 µM; at BRAF G469A (setting [13]) it was > 0.5 µM; on BRAF D594G (setting [15]) it was > 0.5 µM. The Dmax at BRAF V600E (setting [10]) is > 70%; at BRAF G466V (setting [12]), 30 to 70%; at BRAF G469A (setting [14]), < 30%; at BRAF D594G (setting [16]), 30 to 70%.

For `C[C@@H]1CN(c2ccc(-n3cc(-c4cc(F)cc(NS(=O)(=O)N5CCCC5)c4F)c(-c4ccncc4)n3)c(F)c2)CCN1CC1CCN(c2ccc(C3CCC(=O)NC3=O)cn2)CC1` (mixture of isomers) [Compound 289, N-(3-(1-(4-((R)-4-((1-(5-((RS)-2,6-dioxopiperidin-3-yl)pyridin-2-yl)piperidin-4-yl)methyl)-3-methylpiperazin-1-yl)-2-fluorophenyl)-3-(pyridin-4-yl)-1H-pyrazol-4-yl)-2,5-difluorophenyl)pyrrolidine-1-sulfonamide], the DC50 on BRAF V600E (setting [1]) was < 0.01 µM; at BRAF G466V (setting [3]), < 0.01 µM; on BRAF G469A (setting [5]), 0.01 to 0.05 µM; on BRAF D594G (setting [7]), < 0.01 µM. The Dmax on BRAF V600E (setting [2]), on BRAF G466V (setting [4]), on BRAF G469A (setting [6]) and at BRAF D594G (setting [8]) was > 70% throughout.

As to `CCCS(=O)(=O)Nc1cccc(-c2nc(C(C)(C)C)sc2-c2ccnc(Nc3cccc(OC4CCN(C(=O)[C@H]5CC[C@H](Oc6ccc(C7CCC(=O)NC7=O)cn6)CC5)CC4)c3)n2)c1F` (mixture of isomers) [Compound 97, N-{3-[2-tert-butyl-5-(2-{[3-({1-[(1r,4r)-4-({5-[(3RS)-2,6-dioxopiperidin-3-yl]pyridin-2-yl}oxy)cyclohexanecarbonyl]piperidin-4-yl}oxy)phenyl]amino}pyrimidin-4-yl)-1,3-thiazol-4-yl]-2-fluorophenyl}propane-1-sulfonamide], the DC50 on BRAF V600E (setting [9]) is 0.01 to 0.05 µM; at BRAF G466V (setting [11]) it was > 0.5 µM; at BRAF G469A (setting [13]), > 0.5 µM; on BRAF D594G (setting [15]), > 0.5 µM. Besides, the Dmax at BRAF V600E (setting [10]) is > 70%; at BRAF G466V (setting [12]), 30 to 70%; on BRAF G469A (setting [14]), < 30%; at BRAF D594G (setting [16]), 30 to 70%.

Turning to `CCCS(=O)(=O)Nc1cccc(-c2nc(C(C)(C)C)sc2-c2ccnc(Nc3ccc(N4CCN(C(=O)[C@@H]5CCN(c6ccc([C@H]7CCC(=O)NC7=O)cn6)C5)CC4)c(F)c3)n2)c1F` (racemic) [Compound 49, Rac-N-(3-(2-(tert-butyl)-5-(2-((4-(4-((R)-1-(5-((R)-2,6-dioxopiperidin-3-yl)pyridin-2-yl)pyrrolidine-3-carbonyl)piperazin-1-yl)-3-fluorophenyl)amino)pyrimidin-4-yl)thiazol-4-yl)-2-fluorophenyl)propane-1-sulfonamide], the DC50 was < 0.01 µM on BRAF V600E (setting [9]), > 0.5 µM on BRAF G466V (setting [11]), > 0.5 µM on BRAF G469A (setting [13]) and > 0.5 µM on BRAF D594G (setting [15]). Further, the Dmax at BRAF V600E (setting [10]) was > 70%; at BRAF G466V (setting [12]), 30 to 70%; at BRAF G469A (setting [14]), 30 to 70%; on BRAF D594G (setting [16]) it was 30 to 70%.

In the case of `O=C1CC[C@H](c2ccc(N3CCC(CN4CCCN(c5ccc(-n6cc(-c7cc(Cl)cc(NS(=O)(=O)N8CCCC8)c7F)c(-c7ccncc7)n6)c(F)c5)CC4)CC3)cc2)C(=O)N1` [Compound 346, N-{5-chloro-3-[1-(4-{4-[(1-{4-[(3R)-2,6-dioxopiperidin-3-yl]phenyl}piperidin-4-yl)methyl]-1,4-diazepan-1-yl}-2-fluorophenyl)-3-(pyridin-4-yl)-1H-pyrazol-4-yl]-2-fluorophenyl}pyrrolidine-1-sulfonamide], the DC50 at BRAF V600E (setting [1]) was < 0.01 µM; on BRAF G466V (setting [3]), > 0.5 µM; at BRAF G469A (setting [5]), > 0.5 µM; on BRAF D594G (setting [7]), > 0.5 µM. In addition, the Dmax was > 70% at BRAF V600E (setting [2]), 30 to 70% at BRAF G466V (setting [4]), < 30% on BRAF G469A (setting [6]) and < 30% on BRAF D594G (setting [8]).
